Earlier results, collected in US20230310429A1, “FORMULATIONS FOR REDUCING HAIR LOSS AND/OR INCREASING HAIR REGROWTH” (TRIPLE HAIR INC., priority 2020, published 2023).
Where two headings read alike, the source gives them in different places.

Columns and labels:
[1] = not given; remark: listed apart in the source
[2] = not given; remark: listed apart in the source
[3] = test system: regrowth of the hair; details: topical
[4] = test system: prostaglandin endoperoxide synthase-1 (PGHS-1); details: oxygen consumption in PGE2 production; Michelet et al. 1997

SMILES | solubility (in words) (acetone) | solubility (in words) (acetonitrile) | solubility (in words) (ethanol) | solubility (in words) (ethyl acetate) | solubility (in words) (isopropanol) | solubility (in words) (methanol) | solubility (in words) (octanol) | solubility (in words) (water) | other adverse effects ([1]; in vivo) | side effect on periocular hair and eyelashes ([1]; ophthalmic use) | pKa [2] | effective in promoting regrowth of the hair [3] | activation of purified PGHS-1 [4] | solubility (in words) (0.1N HCl) | solubility (in words) (0.1N NaOH) | solubility (in words) (DMSO) | solubility (in words) (chloroform) | solubility (in words) (n-propanol) | solubility (in words) (polyethylene glycol 400) | solubility (in words) (propylene glycol)
CC(C)OC(=O)CCC/C=C\C[C@@H]1[C@@H](CC[C@@H](O)CCc2ccccc2)[C@H](O)C[C@@H]1O [Latanoprost] | freely soluble | very soluble | freely soluble | freely soluble | freely soluble | freely soluble | freely soluble | practically insoluble | erythema, folliculitis, sensation of burning and erysipelas | augmentation of periocular hirsuteness | – | – | – | – | – | – | – | – | – | –
Nc1cc(N2CCCCC2)nc(N)[n+]1[O-] [Minoxidil, (6-(1-pipedidinyl)-2,4-pyrimidinediamine 3-oxide)] | – | – | – | – | – | – | – | – | – | – | 4.61 | less than 40% | potent activator | – | – | – | – | – | – | –
CC(C)(C)NC(=O)[C@H]1CC[C@H]2[C@@H]3CC[C@H]4NC(=O)C=C[C@]4(C)[C@H]3CC[C@]12C [Finasteride, ((5α,17β)-N-(1,1-Dimethylethyl)-3-oxo-4-azaandrost-1-ene-17-carboxamide)] | – | – | freely soluble | – | – | freely soluble | – | not soluble | – | – | – | – | – | very slightly soluble | very slightly soluble | freely soluble | freely soluble | freely soluble | sparingly soluble | sparingly soluble
